# Results: patent US11007136B2, “Cosmetic composition for wrinkle reduction containing gypenoside isolated from Gynostemma pentaphyllum” (CELLTRION INC., priority 2015, dated 2021)
# Columns and labels:
# [1] = Stability of the fraction in raw material solution (HPLC content of UL4, UL5); type: physicochemical; details: for content stability Results: over 12 weeks
# Protocol: A solution obtained by dissolving powder of the Gynostemma pentaphyllum gypenoside fraction at a concentration of 4% in 100 mL of a mixed solvent of propylene glycol, glycerin and distilled water at a ratio of 5:3:2 was used to identify stability of the Gynostemma pentaphyllum gypenoside fraction in a raw material state. While the solution was being stored under a condition of 4° C., 30° C. and 45° C. and sunlight for 12 weeks, changes with passage of time (% compared to an initial content) in the gypenosides UL4 and UL5, which were index ingredients for quantification out of the Gynostemma pentaphyllum gypenosides, were observed through an HPLC analysis and results thereof were indicated in Table 3.
# [2] = system: human dermal fibroblast neonatal; test: Cytotoxicity test (MTT); type: cell-based; details: for HDFn Viability: 48 h, % control
# Protocol: A human dermal fibroblast neonatal (Cascade Co.) was inoculated into a 24-well microplate (5×10^4 cells/well) by using a medium, in which Dulbeco's Modified Eagle's Medium (DMEM) was supplemented with 10% fetal bovine serum, thus being cultured under a condition of 37° C. and 5% CO2 for 24 hours. Then, the same was replaced with a serum-free DMEM medium and cultured for 24 hours, thus treating the Gynostemma pentaphyllum gypenoside fraction obtained from the Example 1 and the gypenosides UL4 and UL5 isolated therefrom, respectively. After being cultured for 48 hours, an MTT solution was added thereto, thus being cultured for four hours. The medium was removed therefrom and DMSO was added thereto, thus dissolving an MTT formazan. The MTT formazan dissolved in the DMSO was taken out and an optical density thereof was measured at 570 nm, thus being compared to a group without sample treatment and indicated as % control.
# [3] = Titer stability of UL4 and UL5 within formulations (HPLC); type: physicochemical; details: for content stability Result: over 12 weeks
# Protocol: As shown in Formulation Examples 1, 2 and 3, cosmetic compositions of a high viscosity emulsified formulation, a low viscosity emulsified formulation and a solubilized formulation, respectively comprising 0.2% of the Gynostemma pentaphyllum gypenoside fraction, were stored under a condition of 4 CC, 30 CC, 45° C. and sunlight for 12 weeks and changes with passage of time (% compared to an initial content) in the gypenosides UL4 and UL5, which were index ingredients for quantification out of the Gynostemma pentaphyllum gypenoside ingredients, were observed through an HPLC analysis, and results thereof were indicated in Tables 10 to 12.
smiles,measurement,setting,value
"CC(C)=CC1C[C@](O)([C@H]2CC[C@]3(C)[C@@H]2CC[C@@H]2[C@@]4(C=O)CC[C@H](O[C@@H]5OC[C@H](O)[C@H](O[C@@H]6O[C@H](CO)[C@@H](O)[C@H](O)[C@H]6O)[C@H]5O[C@@H]5O[C@@H](C)[C@H](O)[C@@H](O)[C@H]5O)C(C)(C)[C@@H]4CC[C@]23C)[C@H](O)O1 (stereo partly drawn) [Gypenoside UL5, (23ξ)-3β,20β,21α-trihydroxy-19-oxo-21,23-epoxy-dammar-24-ene-3-O-[α-L-rhamnopyranosyl (1→2)][β-D-glucopyranosyl (1→3)]-α-L-arabinopyranoside]","content, % compared to an initial content","[1]; 4° C., 1 week",98.8%
same,"content, % compared to an initial content","[1]; 4° C., 2 weeks",101.3%
same,"content, % compared to an initial content","[1]; 4° C., 4 weeks",97%
same,"content, % compared to an initial content","[1]; 4° C., 8 weeks",97.9%
same,"content, % compared to an initial content","[1]; 4° C., 12 weeks",98.1%
same,content stability Results,[1]; 4° C.,Stable
same,"content, % compared to an initial content","[1]; 30° C., 1 week",101.8%
same,"content, % compared to an initial content","[1]; 30° C., 2 weeks",98.2%
same,"content, % compared to an initial content","[1]; 30° C., 4 weeks",99%
same,"content, % compared to an initial content","[1]; 30° C., 8 weeks",101.2%
same,"content, % compared to an initial content","[1]; 30° C., 12 weeks",102.9%
same,content stability Results,[1]; 30° C.,Stable
same,"content, % compared to an initial content","[1]; 45° C., 1 week",97.6%
same,"content, % compared to an initial content","[1]; 45° C., 2 weeks",97.5%
same,"content, % compared to an initial content","[1]; 45° C., 4 weeks",96.9%
same,"content, % compared to an initial content","[1]; 45° C., 8 weeks",99.2%
same,"content, % compared to an initial content","[1]; 45° C., 12 weeks",103.8%
same,content stability Results,[1]; 45° C.,Stable
same,"content, % compared to an initial content","[1]; Sunlight, 1 week",101.1%
same,"content, % compared to an initial content","[1]; Sunlight, 2 weeks",98.4%
same,"content, % compared to an initial content","[1]; Sunlight, 4 weeks",98.8%
same,"content, % compared to an initial content","[1]; Sunlight, 8 weeks",97.2%
same,"content, % compared to an initial content","[1]; Sunlight, 12 weeks",97.8%
same,content stability Results,[1]; Sunlight,Stable
same,HDFn Viability,[2]; 5 ug/ml,100%
same,HDFn Viability,[2]; 10 ug/ml,102%
same,HDFn Viability,[2]; 50 ug/ml,113%
same,cytotoxicity,[2]; at concentrations promoting procollagen synthesis,did not show any cytotoxicity
same,"content, % compared to an initial content","[3]; High viscosity emulsified formulation, 4° C., 1 week",100.6%
same,"content, % compared to an initial content","[3]; High viscosity emulsified formulation, 4° C., 2 weeks",95.1%
same,"content, % compared to an initial content","[3]; High viscosity emulsified formulation, 4° C., 4 weeks",104.4%
same,"content, % compared to an initial content","[3]; High viscosity emulsified formulation, 4° C., 8 weeks",104.2%
same,"content, % compared to an initial content","[3]; High viscosity emulsified formulation, 4° C., 12 weeks",106.9%
same,content stability Result,"[3]; High viscosity emulsified formulation, 4° C.",Stable
same,"content, % compared to an initial content","[3]; High viscosity emulsified formulation, 30° C., 1 week",103.8%
same,"content, % compared to an initial content","[3]; High viscosity emulsified formulation, 30° C., 2 weeks",105.7%
same,"content, % compared to an initial content","[3]; High viscosity emulsified formulation, 30° C., 4 weeks",108.2%
same,"content, % compared to an initial content","[3]; High viscosity emulsified formulation, 30° C., 8 weeks",103.4%
same,"content, % compared to an initial content","[3]; High viscosity emulsified formulation, 30° C., 12 weeks",104.1%
same,content stability Result,"[3]; High viscosity emulsified formulation, 30° C.",Stable
same,"content, % compared to an initial content","[3]; High viscosity emulsified formulation, 45° C., 1 week",102.6%
same,"content, % compared to an initial content","[3]; High viscosity emulsified formulation, 45° C., 2 weeks",104.6%
same,"content, % compared to an initial content","[3]; High viscosity emulsified formulation, 45° C., 4 weeks",102.1%
same,"content, % compared to an initial content","[3]; High viscosity emulsified formulation, 45° C., 8 weeks",101.8%
same,"content, % compared to an initial content","[3]; High viscosity emulsified formulation, 45° C., 12 weeks",103.1%
same,content stability Result,"[3]; High viscosity emulsified formulation, 45° C.",Stable
same,"content, % compared to an initial content","[3]; High viscosity emulsified formulation, Sunlight, 1 week",101.8%
same,"content, % compared to an initial content","[3]; High viscosity emulsified formulation, Sunlight, 2 weeks",99.2%
same,"content, % compared to an initial content","[3]; High viscosity emulsified formulation, Sunlight, 4 weeks",103%
same,"content, % compared to an initial content","[3]; High viscosity emulsified formulation, Sunlight, 8 weeks",101.1%
same,"content, % compared to an initial content","[3]; High viscosity emulsified formulation, Sunlight, 12 weeks",104.9%
same,content stability Result,"[3]; High viscosity emulsified formulation, Sunlight",Stable
same,"content, % compared to an initial content","[3]; Low viscosity emulsified formulation, 4° C., 1 week",98.8%
same,"content, % compared to an initial content","[3]; Low viscosity emulsified formulation, 4° C., 2 weeks",100.4%
same,"content, % compared to an initial content","[3]; Low viscosity emulsified formulation, 4° C., 4 weeks",102.8%
same,"content, % compared to an initial content","[3]; Low viscosity emulsified formulation, 4° C., 8 weeks",100.2%
same,"content, % compared to an initial content","[3]; Low viscosity emulsified formulation, 4° C., 12 weeks",95.2%
same,content stability Result,"[3]; Low viscosity emulsified formulation, 4° C.",Stable
same,"content, % compared to an initial content","[3]; Low viscosity emulsified formulation, 30° C., 1 week",103.3%
same,"content, % compared to an initial content","[3]; Low viscosity emulsified formulation, 30° C., 2 weeks",103.9%
same,"content, % compared to an initial content","[3]; Low viscosity emulsified formulation, 30° C., 4 weeks",102.2%
same,"content, % compared to an initial content","[3]; Low viscosity emulsified formulation, 30° C., 8 weeks",105.6%
same,"content, % compared to an initial content","[3]; Low viscosity emulsified formulation, 30° C., 12 weeks",105%
same,content stability Result,"[3]; Low viscosity emulsified formulation, 30° C.",Stable
same,"content, % compared to an initial content","[3]; Low viscosity emulsified formulation, 45° C., 1 week",103.5%
same,"content, % compared to an initial content","[3]; Low viscosity emulsified formulation, 45° C., 2 weeks",102%
same,"content, % compared to an initial content","[3]; Low viscosity emulsified formulation, 45° C., 4 weeks",104.8%
same,"content, % compared to an initial content","[3]; Low viscosity emulsified formulation, 45° C., 8 weeks",94.2%
same,"content, % compared to an initial content","[3]; Low viscosity emulsified formulation, 45° C., 12 weeks",98.3%
same,content stability Result,"[3]; Low viscosity emulsified formulation, 45° C.",Stable
same,"content, % compared to an initial content","[3]; Low viscosity emulsified formulation, Sunlight, 1 week",94.4%
same,"content, % compared to an initial content","[3]; Low viscosity emulsified formulation, Sunlight, 2 weeks",98.1%
same,"content, % compared to an initial content","[3]; Low viscosity emulsified formulation, Sunlight, 4 weeks",101.6%
same,"content, % compared to an initial content","[3]; Low viscosity emulsified formulation, Sunlight, 8 weeks",101%
same,"content, % compared to an initial content","[3]; Low viscosity emulsified formulation, Sunlight, 12 weeks",102.6%
same,content stability Result,"[3]; Low viscosity emulsified formulation, Sunlight",Stable
same,"content, % compared to an initial content","[3]; Solubilized formulation, 4° C., 1 week",98.8%
same,"content, % compared to an initial content","[3]; Solubilized formulation, 4° C., 2 weeks",95.7%
same,"content, % compared to an initial content","[3]; Solubilized formulation, 4° C., 4 weeks",105.1%
same,"content, % compared to an initial content","[3]; Solubilized formulation, 4° C., 8 weeks",102.8%
same,"content, % compared to an initial content","[3]; Solubilized formulation, 4° C., 12 weeks",102.3%
same,content stability Result,"[3]; Solubilized formulation, 4° C.",Stable
same,"content, % compared to an initial content","[3]; Solubilized formulation, 30° C., 1 week",100%
same,"content, % compared to an initial content","[3]; Solubilized formulation, 30° C., 2 weeks",105.1%
same,"content, % compared to an initial content","[3]; Solubilized formulation, 30° C., 4 weeks",108.6%
same,"content, % compared to an initial content","[3]; Solubilized formulation, 30° C., 8 weeks",103.7%
same,"content, % compared to an initial content","[3]; Solubilized formulation, 30° C., 12 weeks",104.9%
same,content stability Result,"[3]; Solubilized formulation, 30° C.",Stable
same,"content, % compared to an initial content","[3]; Solubilized formulation, 45° C., 1 week",100.3%
same,"content, % compared to an initial content","[3]; Solubilized formulation, 45° C., 2 weeks",101.4%
same,"content, % compared to an initial content","[3]; Solubilized formulation, 45° C., 4 weeks",97.2%
same,"content, % compared to an initial content","[3]; Solubilized formulation, 45° C., 8 weeks",102.1%
same,"content, % compared to an initial content","[3]; Solubilized formulation, 45° C., 12 weeks",95.6%
same,content stability Result,"[3]; Solubilized formulation, 45° C.",Stable
same,"content, % compared to an initial content","[3]; Solubilized formulation, Sunlight, 1 week",97.9%
same,"content, % compared to an initial content","[3]; Solubilized formulation, Sunlight, 2 weeks",95.9%
same,"content, % compared to an initial content","[3]; Solubilized formulation, Sunlight, 4 weeks",104.9%
same,"content, % compared to an initial content","[3]; Solubilized formulation, Sunlight, 8 weeks",103.5%
same,"content, % compared to an initial content","[3]; Solubilized formulation, Sunlight, 12 weeks",103.3%
same,content stability Result,"[3]; Solubilized formulation, Sunlight",Stable
